Data on 36 molecules can be found in patent publication US12491185B2, “Inhibitors of mPTP” (NRG Therapeutics Ltd, priority 2023, dated 2025).

In experiment [1] the test system is mPTP. The experiment is described as follows: mPTP activity (Ca2+ retention) assay in isolated rat liver mitochondria. The conditions noted are these: examples tested by different contract research organisations, believed comparable. In kind it is biochemical. The essentials: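 pIC50 was taken from Fluo5N fluorescence at 10 min after a 75 μM CaCl2 bolus, scaled between DMSO (0%) and 5 μM cyclosporin A (100%). Compounds, ten half-log concentrations from 30 μM to 1 nM final, sat 10 min at RT with fresh female Sprague Dawley rat liver mitochondria energized by succinate plus rotenone.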

Experiment [2] relates to mPTP. The experiment is described as follows: mPTP activity assay in isolated rat brain mitochondria. In kind it is biochemical. The conditions noted are these: fluorescence at 10 min timepoint. In short, it runs like this:
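Fresh brain mitochondria from female Sprague Dawley rats, digitonin-washed, in pH 7.4 mannitol/MOPS/KCl buffer with pyruvate, malate, ADP, oligomycin A and 2 μM Fluo5N. Preincubated with compounds 10 min at RT. Fluo5N fluorescence then read every 3 sec for 10 min on FLIPR Tetra.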

Turning to `O=C(NCC1(Cc2ccccc2)CC(F)(F)C1)c1cncc(=O)[nH]1` [Example 48, N-((1-benzyl-3,3-difluorocyclobutyl)methyl)-6-oxo-1,6-dihydropyrazine-2-carboxamide], the “mPTP Rat liver pIC50” value in the experiment on mPTP [1] stood at 4.56. The “mPTP Rat brain pIC50” value with mPTP [2] was determined as 5.99.
The like results for `O=C(NCC1(Cc2cccc(F)c2)CCC1)c1cncc(O)n1` [Example 49, N-((1-(3-fluorobenzyl)cyclobutyl)methyl)-6-hydroxypyrazine-2-carboxamide] were, in that order, 4.56 and 7.44.
With `O=C(NCC1(Cc2ccc(F)cc2)CCC1)c1cncc(O)n1` [Example 50, N-((1-(4-fluorobenzyl)cyclobutyl)methyl)-6-hydroxypyrazine-2-carboxamide], the “mPTP Rat liver pIC50” value in the experiment with mPTP [1] worked out at 4.66. Besides, in the experiment on mPTP [2], the “mPTP Rat brain pIC50” value came to 7.23.
Regarding `Cn1nc(C(=O)NCC(Cc2ccccc2)C2CCC2)[nH]c1=O` (stereo not drawn) [Example 51, N-(2-cyclobutyl-3-phenylpropyl)-1-methyl-5-oxo-4,5-dihydro-1H-1,2,4-triazole-3-carboxamide], the “mPTP Rat liver pIC50” value in the experiment with mPTP [1] was determined as 5.62. For the same molecule, the “mPTP Rat brain pIC50” value with mPTP [2] worked out at 6.84.
In the same order, the values of `CC(c1ccc(F)cc1F)C1(CNC(=O)c2nn(C)c(=O)[nH]2)CCC1` (stereo not drawn) [Example 52, N-((1-(1-(2,4-difluorophenyl)ethyl)cyclobutyl)methyl)-1-methyl-5-oxo-4,5-dihydro-1H-1,2,4-triazole-3-carboxamide] are 6.41 and 7.64.
The like results for `Cn1nc(C(=O)NCC(Cc2ccccc2)C2CC2)[nH]c1=O` (stereo not drawn) [Example 53, N-(2-cyclopropyl-3-phenylpropyl)-1-methyl-5-oxo-4,5-dihydro-1H-1,2,4-triazole-3-carboxamide] were, in that order, 6.46 and 7.46.
In the same order, the values of `CC(C)(CNC(=O)c1ccc(=O)[nH]n1)Cc1ccccc1` [Example 56] are 5.76 and 6.73.
For the molecule `CC(C)(CNC(=O)c1ccc2oc(=O)[nH]c2c1)Cc1ccccc1` [Example 57], the “mPTP Rat liver pIC50” value in the experiment on mPTP [1] is on record as 5.43. The “mPTP Rat brain pIC50” value in the experiment with mPTP [2] amounted to 6.25.
The like results for `O=C(NCC1(Cc2ccccn2)CCC1)c1cncc(=O)[nH]1` [Example 62, 6-oxo-N-((1-(pyridin-2-ylmethyl)cyclobutyl)methyl)-1,6-dihydropyrazine-2-carboxamide] were, in that order, 4.85 and 5.16.
The like results for `Cc1n[nH]c(C(=O)NCC2(Cc3ccccc3)CCC2)n1` [Example 64, N-((1-benzylcyclobutyl)methyl)-3-methyl-1H-1,2,4-triazole-5-carboxamide] were, in that order, less than 4.52 and 4.64.
The like results for `Cn1nc(C(=O)NCC(Cc2cccc(F)c2)C2CC2)[nH]c1=O` (stereo not drawn) [Example 78, N-(2-Cyclopropyl-3-(3-fluorophenyl)propyl)-1-methyl-5-oxo-4,5-dihydro-1H-1,2,4-triazole-3-carboxamide] were, in that order, 6.59 and 7.28.
Take `Cn1nc(C(=O)NCC2(Cc3cccc(Cl)c3)CCC2)[nH]c1=O` [Example 79, N-((1-(3-Chlorobenzyl)cyclobutyl)methyl)-1-methyl-5-oxo-4,5-dihydro-1H-1,2,4-triazole-3-carboxamide]: the “mPTP Rat liver pIC50” value in the experiment with mPTP [1] is 6.39. Moreover, in the experiment on mPTP [2], the “mPTP Rat brain pIC50” value amounted to 7.59.
The like results for `CCC(CNC(=O)c1nn(C)c(=O)[nH]1)Cc1cccs1` (stereo not drawn) [Example 80, 1-Methyl-5-oxo-N-(2-(thiophen-2-ylmethyl)butyl)-4,5-dihydro-1H-1,2,4-triazole-3-carboxamide] were, in that order, 5.77 and 6.29.
The like results for `Cn1nc(C(=O)NCC2(Cc3cc(F)ccc3F)CCC2)[nH]c1=O` [Example 81, N-((1-(2,5-Difluorobenzyl)cyclobutyl)methyl)-1-methyl-5-oxo-4,5-dihydro-1H-1,2,4-triazole-3-carboxamide] were, in that order, 6.85 and 6.51.
In the same order, the values of `Cc1ccc(F)c(CC2(CNC(=O)c3nn(C)c(=O)[nH]3)CCC2)c1` [Example 83, N-((1-(2-Fluoro-5-methylbenzyl)cyclobutyl)methyl)-1-methyl-5-oxo-4,5-dihydro-1H-1,2,4-triazole-3-carboxamide] are 6.04 and 7.27.
As for `Cn1nc(C(=O)NCC2(Cc3cccc(F)c3)CCC2)[nH]c1=O` [Example 84, N-((1-(3-Fluorobenzyl)cyclobutyl)methyl)-1-methyl-5-oxo-4,5-dihydro-1H-1,2,4-triazole-3-carboxamide], the “mPTP Rat liver pIC50” value in the experiment on mPTP [1] is reported as 6.72. Further, in the experiment with mPTP [2], the “mPTP Rat brain pIC50” value was 7.72.
`Cn1nc(C(=O)NCC2(Cc3ccc(F)cc3F)CCCC2)[nH]c1=O` [Example 92, N-((1-(2,4-Difluorobenzyl)cyclopentyl)methyl)-1-methyl-5-oxo-4,5-dihydro-1H-1,2,4-triazole-3-carboxamide]: the “mPTP Rat liver pIC50” value with mPTP [1] was found to be 6.31. Also, the “mPTP Rat brain pIC50” value in the experiment with mPTP [2] was 7.54.
In the same order, the values of `Cn1nc(C(=O)NCC2(Cc3cccc(F)c3F)CCC2)[nH]c1=O` [Example 95, N-((1-(2,3-Difluorobenzyl)cyclobutyl)methyl)-1-methyl-5-oxo-4,5-dihydro-1H-1,2,4-triazole-3-carboxamide] are 6.16 and 7.39.
In the case of `CC[C@H](CNC(=O)c1nn(C)c(=O)[nH]1)Cc1ccc(F)cc1F` [Example 98, (S)—N-(2-(2,4-Difluorobenzyl)butyl)-1-methyl-5-oxo-4,5-dihydro-1H-1,2,4-triazole-3-carboxamide], the “mPTP Rat liver pIC50” value in the experiment with mPTP [1] is 6.59. Further, in the experiment with mPTP [2], the “mPTP Rat brain pIC50” value is listed as 7.78.
`Cn1nc(C(=O)NCC2(Cc3cccc(Br)c3)CCC2)[nH]c1=O` [Example 99, N-((1-(3-Bromobenzyl)cyclobutyl)methyl)-1-methyl-5-oxo-4,5-dihydro-1H-1,2,4-triazole-3-carboxamide]: the “mPTP Rat liver pIC50” value in the experiment on mPTP [1] is 5.89. Also, the “mPTP Rat brain pIC50” value in the experiment on mPTP [2] was 7.68.
The like results for `Cn1nc(C(=O)NCC2(Cc3cccc(C#N)c3)CCC2)[nH]c1=O` [Example 100, N-((1-(3-Cyanobenzyl)cyclobutyl)methyl)-1-methyl-5-oxo-4,5-dihydro-1H-1,2,4-triazole-3-carboxamide] were, in that order, 5.99 and 6.32.
For the molecule `Cn1nc(C(=O)NCC2(Cc3cc(F)cc(F)c3)CCC2)[nH]c1=O` [Example 116, N-((1-(3,5-difluorobenzyl)cyclobutyl)methyl)-1-methyl-5-oxo-4,5-dihydro-1H-1,2,4-triazole-3-carboxamide], in the experiment with mPTP [1], the “mPTP Rat liver pIC50” value was 6.04. For the same molecule, the “mPTP Rat brain pIC50” value in the experiment on mPTP [2] was found to be 6.45.
The like results for `Cn1nc(C(=O)NCC2(Cc3ccc(F)cc3F)CCOCC2)[nH]c1=O` [Example 121] were, in that order, 6.67 and 7.1.
In the same order, the values of `Cc1cc(F)ccc1C[C@@H](CNC(=O)c1nn(C)c(=O)[nH]1)C1CC1` [Example 131] are 7.01 and 7.85.
The like results for `O=C(NCC1(Cc2ccc(F)cc2F)CCC1)c1c[nH]c(=O)cn1` [Example 132] were, in that order, 6.08 and 7.31.
`O=C(NCC1(Cc2ccc(F)c(F)c2)CCC1)c1nccc(=O)[nH]1` [Example 133]: the “mPTP Rat liver pIC50” value with mPTP [1] is 6.51. The “mPTP Rat brain pIC50” value in the experiment on mPTP [2] was 7.5.
The like results for `Cn1nc(C(=O)NCC2(Cc3ccc(F)c(F)c3)CCC2)[nH]c1=O` [Example 142, N-((1-(3,4-difluorobenzyl)cyclobutyl)methyl)-1-methyl-5-oxo-4,5-dihydro-1H-1,2,4-triazole-3-carboxamide] were, in that order, 7.04 and 7.42.
In the same order, the values of `O=C(NCC1(Cc2cc(F)ccc2F)CCC1)c1nccc(=O)[nH]1` [Example 146] are 6.85 and 7.62.
On to `O=C(NC[C@H](Cc1ccc(F)cc1F)C1CC1)c1cncc(=O)[nH]1` [Example 149], for which the “mPTP Rat liver pIC50” value in the experiment with mPTP [1] came to 6.32. Moreover, the “mPTP Rat brain pIC50” value in the experiment with mPTP [2] worked out at 7.07.
The like results for `Cn1nc(C(=O)NC[C@H](Cc2ccc(F)c(F)c2)C2CC2)[nH]c1=O` [Example 150] were, in that order, 7.08 and 7.61.
In the same order, the values of `O=C(NCC1(Cc2ccc(F)cc2F)CCCC1)c1cncc(=O)[nH]1` [Example 152] are 6.19 and 7.44.
As to `O=C(NC[C@H](Cc1cc(F)ccc1F)C1CC1)c1nccc(=O)[nH]1` [Example 153], the “mPTP Rat liver pIC50” value in the experiment with mPTP [1] is recorded as 6.22. Also, in the experiment with mPTP [2], the “mPTP Rat brain pIC50” value turned out to be 7.12.
In the same order, the values of `Cn1nc(C(=O)NCC2(Cc3ccc(F)c(F)c3F)CCC2)[nH]c1=O` [Example 156] are 6.28 and 7.24.
The like results for `Cn1nc(C(=O)NCC2(Cc3cc(F)c(F)cc3F)CCC2)[nH]c1=O` [Example 157, 1-methyl-5-oxo-N-((1-(2,4,5-trifluorobenzyl)cyclobutyl)methyl)-4,5-dihydro-1H-1,2,4-triazole-3-carboxamide] were, in that order, 7.03 and 7.81.
The like results for `Cn1nc(C(=O)NC[C@H](Cc2cc(F)ccc2F)C2CC2)[nH]c1=O` [Example 159] were, in that order, 6.97 and 7.77.
In the case of `O=C(NCC1(Cc2ccc(F)cc2F)CCC1)c1nccc(=O)[nH]1` [Example 160], the “mPTP Rat liver pIC50” value with mPTP [1] was found to be 6.28. Besides, the “mPTP Rat brain pIC50” value in the experiment with mPTP [2] is given as 7.7.
